As a reminder, the pIC50 is the negative decadic logarithm of the IC50, by convention in mol/L. A lower pIC50 goes with a high IC50.

pIC50: −log10 of the molar value.

CSF1R, sequence (P07333 20-972): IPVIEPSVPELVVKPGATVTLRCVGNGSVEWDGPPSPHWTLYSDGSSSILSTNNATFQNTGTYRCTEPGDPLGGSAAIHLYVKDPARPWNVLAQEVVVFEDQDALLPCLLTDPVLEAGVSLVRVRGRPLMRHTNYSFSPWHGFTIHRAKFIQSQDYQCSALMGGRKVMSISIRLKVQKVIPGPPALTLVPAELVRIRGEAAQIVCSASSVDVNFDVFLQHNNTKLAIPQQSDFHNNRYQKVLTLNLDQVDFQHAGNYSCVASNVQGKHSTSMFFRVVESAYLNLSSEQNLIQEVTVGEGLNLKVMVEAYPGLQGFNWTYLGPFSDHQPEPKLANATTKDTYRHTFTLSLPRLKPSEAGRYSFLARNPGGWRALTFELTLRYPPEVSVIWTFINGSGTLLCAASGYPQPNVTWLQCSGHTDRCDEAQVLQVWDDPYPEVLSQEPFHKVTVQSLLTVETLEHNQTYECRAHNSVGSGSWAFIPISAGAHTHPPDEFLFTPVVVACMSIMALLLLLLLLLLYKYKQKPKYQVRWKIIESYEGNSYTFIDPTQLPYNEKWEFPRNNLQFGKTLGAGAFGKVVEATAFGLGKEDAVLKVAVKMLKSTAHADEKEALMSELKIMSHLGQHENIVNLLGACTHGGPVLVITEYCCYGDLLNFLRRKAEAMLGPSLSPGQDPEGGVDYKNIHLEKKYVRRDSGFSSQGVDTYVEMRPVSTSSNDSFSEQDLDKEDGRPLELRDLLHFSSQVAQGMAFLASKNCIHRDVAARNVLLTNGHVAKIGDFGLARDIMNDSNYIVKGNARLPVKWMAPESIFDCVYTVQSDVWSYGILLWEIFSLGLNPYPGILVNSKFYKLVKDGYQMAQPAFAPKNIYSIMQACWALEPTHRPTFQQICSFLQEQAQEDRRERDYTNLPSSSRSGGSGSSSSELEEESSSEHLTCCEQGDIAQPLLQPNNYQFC

The experiment concerns the target CSF1R (Homo sapiens, UniProt P07333). Briefly: Cellular CSF1R inhibition ELISA (p-CSF1R, M-CSF-induced) using THP-1 cells. Type of experiment: cell-based. On the set-up: THP-1 cells act as a model for human monocytes; endogenous in cells; host or cells: THP-1. The procedure, abridged:
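THP-1 cells (2×10^5/well, RPMI/10% FBS) were treated with compound, 10 doses in 3-fold steps, for 24 h at 37 °C in 0.2% DMSO final. They were then stimulated 5 min with human M-CSF (10 ng/ml final) and lysed. p-CSF1R was read by sandwich ELISA (HRP/TMB), with a sigmoidal dose-response fit.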
(In general: ELISA stands for enzyme-linked immunosorbent assay.)
Regarding `COc1cc2nccc(Oc3ccc(NC(=O)c4nn(C5CCOC5)cc4OCC(F)(F)F)c(F)c3)c2cc1OC` (stereo not shown) [Compound 77], the pIC50 was ≤ 6.00.
Consider `COCCn1cc(OCC(F)(F)F)c(C(=O)Nc2ccc(Oc3ccnc4cc(OC)c(OC)cc34)c(C)c2)n1` [Compound 84], for which the pIC50 is 6.00 to 6.30.
Turning to `COc1cc2nccc(Oc3ccc(NC(=O)c4nn(C5CC5)cc4OCC(F)(F)F)nc3)c2cc1OC` [Compound 5], the pIC50 is > 6.30.
For the molecule `COc1cc2nccc(Oc3ccc(NC(=O)c4nn(C5CCN(C)C5)cc4OCC(F)(F)F)nc3)c2cc1OC` (stereo not shown) [Compound 91], the pIC50 is > 6.30.
Then `COc1cc2nccc(Oc3ccc(NC(=O)c4nn(CC(C)O)cc4OCC(F)(F)F)cc3F)c2cc1OC` (stereo not shown) [Compound 80], with ≤ 6.00; and `COc1cc2nccc(Oc3ccc(NC(=O)c4nn(CCC5CCCC5)cc4OCC(F)(F)F)nc3)c2cc1OC` [Compound 93], with > 6.30; and `COc1cc2nccc(Oc3ccc(NC(=O)c4nn(C5CCNC5)cc4OCC(F)(F)F)cc3)c2cc1OC` (stereo not shown) [Compound 86], with ≤ 6.00.
Turning to `COc1cc2nccc(Oc3ccc(NC(=O)c4nn(C5CCNC5)cc4OCC(F)(F)F)cc3F)c2cc1OC` (stereo not shown) [Compound 78], the pIC50 is ≤ 6.00.
Consider `COc1cc2nccc(Oc3ccc(NC(=O)c4nn(CC5COC5)cc4OCC(F)(F)F)c(F)c3)c2cc1OC` [Compound 95], for which the pIC50 was ≤ 6.00.
Next, `COc1cc2nccc(Oc3ccc(NC(=O)c4nn(CCN)cc4OCC(F)(F)F)cc3C)c2cc1OC` [Compound 82]: ≤ 6.00; `COc1cc2nccc(Oc3ccc(NC(=O)c4nn(CCN)cc4OCC(F)(F)F)cc3)c2cc1OC` [Compound 88]: ≤ 6.00; `COc1cc2nccc(Oc3ccc(NC(=O)c4nn(CC(C)O)cc4OCC(F)(F)F)cc3C)c2cc1OC` (stereo not shown) [Compound 83]: > 6.30.
Regarding `COc1cc2nccc(Oc3ccc(NC(=O)c4nn(CCN)cc4OCC(F)(F)F)cc3F)c2cc1OC` [Compound 79], the negative logarithm of the IC50 (pIC50) is ≤ 6.00.
Next, `COc1cc2nccc(Oc3ccc(NC(=O)c4nn(CC(C)O)cc4OCC(F)(F)F)cc3)c2cc1OC` (stereo not shown) [Compound 89]: 6.00 to 6.30; `COc1cc2nccc(Oc3ccc(NC(=O)c4nn(CC(C)C)cc4OCC(F)(F)F)cc3)c2cc1OC` [Compound 87]: 6.00 to 6.30.
Next, `COc1cc2nccc(Oc3ccc(NC(=O)c4nn(C5CCN(C)C5)cc4OCC(F)(F)F)c(F)c3)c2cc1OC` (stereo not shown) [Compound 94]: ≤ 6.00; `COc1cc2nccc(Oc3ccc(NC(=O)c4nn(C5CCOC5)cc4OCC(F)(F)F)cc3C)c2cc1OC` (stereo not shown) [Compound 85]: 6.00 to 6.30; `COc1cc2nccc(Oc3ccc(NC(=O)c4nn(C5CCOCC5)cc4OCC(F)(F)F)nc3)c2cc1OC` [Compound 90]: > 6.30.
Turning to `COc1cc2nccc(Oc3ccc(NC(=O)c4nn(C5CCNC5)cc4OCC(F)(F)F)cc3C)c2cc1OC` (stereo not shown) [Compound 81], the negative-log IC50 (pIC50) is ≤ 6.00.
